These are literature values, as cited in US7981441B2, “Drug delivery systems using mesoporous oxide films” (The Board of Trustees of the Leland Stanford Junior …, priority 2004, dated 2011).

The conditions of series [1]: 4 to six acrylate sleeves each loaded with 800 micrograms.
Series [2] deals with rabbit neointimal hyperplasia. Conditions: pLA/pCL copolymer-coated stents containing 200 μg of paclitaxel; months after stent implantation.
Series [3] has as its system porcine neointimal hyperplasia. Conditions: bare stent, dip-coating; 0, 0.2, 15 and 187 μg/stent; at 4 weeks.

In the case of `CCCCCC(=O)O[C@H]1C[C@H]2OC[C@@]2(OC(C)=O)[C@H]2[C@H](OC(=O)c3ccccc3)[C@]3(O)C[C@H](OC(=O)[C@H](O)[C@@H](NC(=O)c4ccccc4)c4ccccc4)C(C)=C([C@@H](OC(C)=O)C(=O)[C@]12C)C3(C)C` [7-hexanoyltaxol], the “clinical outcome of study” value in series [1] is “clinically unpromising”.

Regarding `CC(=O)O[C@H]1C(=O)[C@@]2(C)[C@H]([C@H](OC(=O)c3ccccc3)[C@]3(O)C[C@H](OC(=O)[C@H](O)[C@@H](NC(=O)c4ccccc4)c4ccccc4)C(C)=C1C3(C)C)[C@]1(OC(C)=O)CO[C@@H]1C[C@@H]2O` [paclitaxel], the “effect on rabbit neointimal hyperplasia” value in series [2] was “virtually abolished”. In series [3], the “effect on porcine neointimal hyperplasia” value is “significant dose-dependent inhibition”.
